± gives the expanded uncertainty stated by the source.
How the values were obtained:
[1] = Liquid; for mass density: 293.15 K, 101.33 kPa; for Normal boiling temperature: Fischer boiling point apparatus
[2] = refractive index (Na D-line) (dimensionless); conditions: 298.15 K; 101.33 kPa; Liquid; Standard Abbe refractometry

Row | mass density [1] | Normal boiling temperature [1] | refractive index [2] | SMILES
1 | 1049.42 ± 0.29 kg/m3 | 118.1 ± 0.2 °C | 1.3713 ± 0.0007 | CC(=O)O [acetic acid]
2 | 1061.9 ± 0.61 kg/m3 | 225.1 ± 0.2 °C | 1.4215 ± 0.0012 | COC(=O)CCCCC(=O)OC [dimethyl 1,6-hexanedioate]
3 | – | – | 1.3324 ± 0.0007 | O [water]

Source: the NIST ThermoML archive (doi:10.1016/j.fluid.2004.11.025)
